# Data: patent US12012392B2, “Sulfonamide carboxamide compounds” (Inflazome Limited, priority 2017, dated 2024)
# Like-named read-outs stand apart in the source and are kept apart here.
# Assays:
# NLRP3 = NLRP3 (Homo sapiens, UniProt Q96P20); assay: THP-1 cells pyroptosis assay; assay type: cell-based; set-up: Seed THP-1 cells (25,000 cells/well) containing 1.0 μg/ml LPS; host or cells: THP-1 cells, LPS-primed, nigericin-stimulated; conditions: LPS 1 μg/ml, nigericin 5 μM, resazurin read-out
# Method: THP-1 cells (ATCC #TIB-202) were grown in RPMI containing L-glutamine (Gibco #11835) supplemented with 1 mM sodium pyruvate (Sigma #S8636) and penicillin (100 units/ml)/streptomycin (0.1 mg/ml) (Sigma #P4333) in 10% Fetal Bovine Serum (FBS) (Sigma #F0804). The cells were routinely passaged and grown to confluency (˜10^6 cells/ml). On the day of the experiment, THP-1 cells were harvested and resuspended into RPMI medium (without FBS). The cells were then counted and viability (>90%) checked by Trypan blue (Sigma #T8154). Appropriate dilutions were made to give a concentration of 625,000 cells/ml. To this diluted cell solution was added LPS (Sigma #L4524) to give a 1 μg/ml Final Assay Concentration (FAC). 40 μl of the final preparation was aliquoted into each well of a 96-well plate. The plate thus prepared was used for compound screening.
# The following method step-by-step assay was followed for compound screening. • 1. Seed THP-1 cells (25,000 cells/well) containing 1.0 μg/ml LPS in 40 μl of RPMI medium (without FBS) in 96-well, black walled, clear bottom cell culture plates coated with poly-D-lysine (VWR #734-0317) • 2. Add 5 μl compound (8 points half-log dilution, with 10 μM top dose) or vehicle (DMSO 0.1% FAC) to the appropriate wells • 3. Incubate for 3 hrs at 37° C. and 5% CO2 • 4. Add 5 μl nigericin (Sigma #N7143) (FAC 5 μM) to all wells • 5. Incubate for 1 hr at 37° C. and 5% CO2 • 6. At the end of the incubation period, spin plates at 300×g for 3 mins and remove supernatant • 7. Then add 50 μl of resazurin (Sigma #R7017) (FAC 100 μM resazurin in RPMI medium without FBS) and incubate plates for a further 1-2 hrs at 37° C. and 5% CO2 • 8. Plates were read in an Envision reader at Ex 560 nm and Em 590 nm • 9. IC50 data is fitted to a non-linear regression equation (log inhibitor vs response-variable slope 4-parameters) 96-Well Plate Map
# [1] = PK protocol (intravenous and oral administration); assay type: in vivo, male Sprague Dawley rats; conditions: male, Sprague Dawley, plasma, rat, intravenous; for Vd: read-out: Vdss
# Method: Pharmacokinetic parameters were determined in male Sprague Dawley rats (Charles River, UK, 250-350 g; or Vital River Laboratory Animal Technology Co Ltd, Beijing, China, 7-9 weeks old). Animals were individually housed during the study and maintained under a 12 h light/dark cycle. Animals had free access to food and water except that some orally dosed animals were food deprived overnight prior to the study. For intravenous administration, compounds were formulated as a solution in water or DMSO:PBS [10:90] in 2 mL/kg dosing volume and administered via tail vein. For oral administration, compounds were formulated as a solution in water or DMSO:water [10:90] in 5 mL/kg dosing volume and administered orally.
# Serial blood samples (about 120-300 μL) were taken from each animal at each of 8 time-points post dose (0.083, 0.25, 0.5, 1, 2, 4, 8 and 24 h) or at each of 12 time-points post dose (0.03, 0.1, 0.17, 0.25, 0.5, 1, 2, 4, 6, 8, 12 and 24 h) or pre-dose and at each of 9 time-points post dose (0.25, 0.5, 1, 2, 4, 6, 8, 12 and 24 h). Samples were held on ice for no longer than 30 minutes before centrifugation (10,000 rpm (8,385 g) for 3 minutes; or 5,696 rpm (3,000 g) for 15 minutes) for plasma generation. Plasma was frozen on dry ice prior to bioanalysis. PK parameters were generated from LC-MS/MS data using Dotmatics or Phoenix WinNonlin 6.3 software.
# Chain of NLRP3 (Q96P20 whole entry): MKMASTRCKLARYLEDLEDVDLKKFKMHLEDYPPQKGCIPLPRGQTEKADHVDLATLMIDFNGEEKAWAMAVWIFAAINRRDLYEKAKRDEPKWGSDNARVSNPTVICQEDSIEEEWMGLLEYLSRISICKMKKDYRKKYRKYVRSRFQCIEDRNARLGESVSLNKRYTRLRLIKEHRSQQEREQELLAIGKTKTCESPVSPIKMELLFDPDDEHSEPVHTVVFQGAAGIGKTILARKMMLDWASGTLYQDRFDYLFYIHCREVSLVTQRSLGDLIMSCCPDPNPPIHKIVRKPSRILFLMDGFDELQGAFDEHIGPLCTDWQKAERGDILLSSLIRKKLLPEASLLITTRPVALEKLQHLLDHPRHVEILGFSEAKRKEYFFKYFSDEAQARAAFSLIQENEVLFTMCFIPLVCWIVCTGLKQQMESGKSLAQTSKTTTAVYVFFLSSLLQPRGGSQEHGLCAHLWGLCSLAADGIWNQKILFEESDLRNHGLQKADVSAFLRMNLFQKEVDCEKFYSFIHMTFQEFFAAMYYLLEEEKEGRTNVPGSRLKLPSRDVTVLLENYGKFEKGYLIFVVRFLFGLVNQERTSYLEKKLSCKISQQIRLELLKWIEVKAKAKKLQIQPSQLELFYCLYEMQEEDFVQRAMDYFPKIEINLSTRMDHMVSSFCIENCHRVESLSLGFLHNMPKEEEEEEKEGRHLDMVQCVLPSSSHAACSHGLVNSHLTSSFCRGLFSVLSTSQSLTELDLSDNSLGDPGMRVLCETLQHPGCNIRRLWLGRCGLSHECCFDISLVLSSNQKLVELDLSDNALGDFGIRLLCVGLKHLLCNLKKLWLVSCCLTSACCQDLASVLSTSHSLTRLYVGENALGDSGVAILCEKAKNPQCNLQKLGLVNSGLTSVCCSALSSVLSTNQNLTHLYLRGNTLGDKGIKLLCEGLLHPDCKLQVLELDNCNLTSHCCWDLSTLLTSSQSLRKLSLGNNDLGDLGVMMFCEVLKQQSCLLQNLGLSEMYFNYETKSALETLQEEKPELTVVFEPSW
SMILES,IC50 (NLRP3) [nM],other results
"CC(C)c1cc(F)cc(C(C)C)c1NC(=O)NS(=O)(=O)c1ccn(C[C@@H](C)O)n1 [Example 27, (R)—N-((4-Fluoro-2,6-diisopropylphenyl)carbamoyl)-1-(2-hydroxypropyl)-1H-pyrazole-3-sulfonamide]",640 to 2560,–
"CC(C)c1cc(F)cc(C(C)C)c1NC(=O)NS(=O)(=O)c1cc(C2(O)COC2)n(C(C)C)n1 [Example 43, N-((4-Fluoro-2,6-diisopropylphenyl)carbamoyl)-5-(3-hydroxyoxetan-3-yl)-1-isopropyl-1H-pyrazole-3-sulfonamide]",640 to 2560,–
"CCn1nc(S(=O)(=O)NC(=O)Nc2c(C(C)C)cc(F)cc2C(C)C)cc1C1(O)COC1 [Example 44, 1-Ethyl-N-((4-fluoro-2,6-diisopropylphenyl)carbamoyl)-5-(3-hydroxyoxetan-3-yl)-1H-pyrazole-3-sulfonamide]",160 to 640,–
"COC1(c2cc(S(=O)(=O)NC(=O)Nc3c(C(C)C)cc(F)cc3C(C)C)nn2C)COC1 [Example 52, N-((4-Fluoro-2,6-diisopropylphenyl)carbamoyl)-5-(3-methoxyoxetan-3-yl)-1-methyl-1H-pyrazole-3-sulfonamide]",160 to 640,–
"CC(C)c1cc(F)cc(C(C)C)c1NC(=O)NS(=O)(=O)c1cc(C2(O)CCOCC2)n(C)n1 [Example 54, N-((4-Fluoro-2,6-diisopropylphenyl)carbamoyl)-5-(4-hydroxytetrahydro-2H-pyran-4-yl)-1-methyl-1H-pyrazole-3-sulfonamide]",640 to 2560,–
"CN(CCO)C(=O)c1cc(S(=O)(=O)NC(=O)Nc2c3c(cc4c2CCC4)CCC3)nn1C [Example 59, 3-(N-((1,2,3,5,6,7-Hexahydro-s-indacen-4-yl)carbamoyl)sulfamoyl)-N-(2-hydroxyethyl)-N,1-dimethyl-1H-pyrazole-5-carboxamide]",40 to 160,AUC ([1]; dose 2.41 mg/kg): 787 ng·h/mL; clearance ([1]; dose 2.41 mg/kg): 114 mL/min/kg; half-life ([1]; dose 2.41 mg/kg): 0.3 h; Vd ([1]; dose 2.41 mg/kg): 2.37 L/kg
"CN(C(=O)c1cc(S(=O)(=O)NC(=O)Nc2c3c(cc4c2CCC4)CCC3)nn1C)C1CCOCC1 [Example 60, 3-(N-((1,2,3,5,6,7-Hexahydro-s-indacen-4-yl)carbamoyl)sulfamoyl)-N,1-dimethyl-N-(tetrahydro-2H-pyran-4-yl)-1H-pyrazole-5-carboxamide]",2560 to 10000,–
"CN(C(=O)c1cc(S(=O)(=O)NC(=O)Nc2c3c(cc4c2CCC4)CCC3)nn1C)C1COC1 [Example 63, 3-(N-((1,2,3,5,6,7-Hexahydro-s-indacen-4-yl)carbamoyl)sulfamoyl)-N,1-dimethyl-N-(oxetan-3-yl)-1H-pyrazole-5-carboxamide]",640 to 2560,–
"CN(CC(O)CO)C(=O)c1cc(S(=O)(=O)NC(=O)Nc2c3c(cc4c2CCC4)CCC3)nn1C (stereo not drawn) [Example 65, N-(2,3-Dihydroxypropyl)-3-(N-((1,2,3,5,6,7-hexahydro-s-indacen-4-yl)carbamoyl)sulfamoyl)-N,1-dimethyl-1H-pyrazole-5-carboxamide]",640 to 2560,–
"CC(C)c1cccc(C(C)C)c1NC(=O)NS(=O)(=O)c1cc(C(=O)N2CCOCC2)n(C)n1 [Example 67, N-((2,6-Diisopropylphenyl)carbamoyl)-1-methyl-5-(morpholine-4-carbonyl)-1H-pyrazole-3-sulfonamide]",640 to 2560,–
"COCCN(C)C(=O)c1cc(S(=O)(=O)NC(=O)Nc2c(C(C)C)cccc2C(C)C)nn1C [Example 68, 3-(N-((2,6-Diisopropylphenyl)carbamoyl)sulfamoyl)-N-(2-methoxyethyl)-N,1-dimethyl-1H-pyrazole-5-carboxamide]",2560 to 10000,–
"COCCN(CCOC)C(=O)c1cc(S(=O)(=O)NC(=O)Nc2c(C(C)C)cccc2C(C)C)nn1C [Example 69, 3-(N-((2,6-Diisopropylphenyl)carbamoyl)sulfamoyl)-N,N-bis(2-methoxyethyl)-1-methyl-1H-pyrazole-5-carboxamide]",2560 to 10000,–
"Cn1nc(S(=O)(=O)NC(=O)Nc2c3c(cc4c2CCC4)CCC3)cc1C(=O)N1CCC(O)CC1 [Example 70, N-((1,2,3,5,6,7-Hexahydro-s-indacen-4-yl)carbamoyl)-5-(4-hydroxypiperidine-1-carbonyl)-1-methyl-1H-pyrazole-3-sulfonamide]",2560 to 10000,–
"COC1CCN(C(=O)c2cc(S(=O)(=O)NC(=O)Nc3c4c(cc5c3CCC5)CCC4)nn2C)C1 (stereo not drawn) [Example 71, N-((1,2,3,5,6,7-Hexahydro-s-indacen-4-yl)carbamoyl)-5-(3-methoxypyrrolidine-1-carbonyl)-1-methyl-1H-pyrazole-3-sulfonamide]",2560 to 10000,–
"Cn1nc(S(=O)(=O)NC(=O)Nc2c3c(cc4c2CCC4)CCC3)cc1C(=O)N1CCOCC1 [Example 74, N-((1,2,3,5,6,7-Hexahydro-s-indacen-4-yl)carbamoyl)-1-methyl-5-(morpholine-4-carbonyl)-1H-pyrazole-3-sulfonamide]",640 to 2560,–
"CN(CCO)Cc1cc(S(=O)(=O)NC(=O)Nc2c3c(cc4c2CCC4)CCC3)nn1C [Example 77, N-((1,2,3,5,6,7-Hexahydro-s-indacen-4-yl)carbamoyl)-5-(((2-hydroxyethyl)(methyl)amino)methyl)-1-methyl-1H-pyrazole-3-sulfonamide]",–,AUC ([1]; dose 1 mg/kg): 2070 ng·h/mL; clearance ([1]; dose 1 mg/kg): 8.1 mL/min/kg; half-life ([1]; dose 1 mg/kg): 14.2 h; Vd ([1]; dose 1 mg/kg): 1.9 L/kg
"CC(C)c1cccc(C(C)C)c1NC(=O)NS(=O)(=O)c1cc(C(=O)N(C)CCO)n(C)n1 [Example 83, 3-(N-((2,6-Diisopropylphenyl)carbamoyl)sulfamoyl)-N-(2-hydroxyethyl)-N,1-dimethyl-1H-pyrazole-5-carboxamide]",640 to 2560,–
"Cn1nc(S(=O)(=O)NC(=O)Nc2c3c(cc4c2CCC4)CCC3)cc1C(=O)NCCO [Example 84, 3-(N-((1,2,3,5,6,7-Hexahydro-s-indacen-4-yl)carbamoyl)sulfamoyl)-N-(2-hydroxyethyl)-1-methyl-1H-pyrazole-5-carboxamide]",2560 to 10000,–
"COCCNC(=O)c1cc(S(=O)(=O)NC(=O)Nc2c3c(cc4c2CCC4)CCC3)nn1C [Example 85, 3-(N-((1,2,3,5,6,7-Hexahydro-s-indacen-4-yl)carbamoyl)sulfamoyl)-N-(2-methoxyethyl)-1-methyl-1H-pyrazole-5-carboxamide]",2560 to 10000,–
"CC(C)(O)Cn1cc(S(=O)(=O)NC(=O)Nc2c3c(cc4c2CCC4)CCC3)cn1 [Example 88, N-((1,2,3,5,6,7-Hexahydro-s-indacen-4-yl)carbamoyl)-1-(2-hydroxy-2-methylpropyl)-1H-pyrazole-4-sulfonamide]",640 to 2560,–
"C[C@@H](O)Cn1cc(S(=O)(=O)NC(=O)Nc2c3c(cc4c2CCC4)CCC3)cn1 [Example 89, (R)—N-((1,2,3,5,6,7-Hexahydro-s-indacen-4-yl)carbamoyl)-1-(2-hydroxypropyl)-1H-pyrazole-4-sulfonamide]",640 to 2560,–
O=C(Nc1c2c(cc3c1CCC3)CCC2)NS(=O)(=O)c1cnn(C2CCOCC2)c1 [Example 99],2560 to 10000,–
O=C(Nc1c2c(cc3c1CCC3)CCC2)NS(=O)(=O)c1cnn(C2CCOC2)c1 (stereo not drawn) [Example 100],640 to 2560,–
COCCn1cc(S(=O)(=O)NC(=O)Nc2c3c(cc4c2CCC4)CCC3)cn1 [Example 101],640 to 2560,–
O=C(Nc1c2c(cc3c1CCC3)CCC2)NS(=O)(=O)c1ccn(C2COCC2O)n1 (stereo not drawn) [Example 105],160 to 640,–
"CC(C)(O)c1coc(S(=O)(=O)NC(=O)Nc2c3c(cc4c2CCC4)CCC3)c1 [MCC950, reference compound]",–,AUC ([1]; dose 1 mg/kg): 611 ng·h/mL; clearance ([1]; dose 1 mg/kg): 27.8 mL/min/kg; half-life ([1]; dose 1 mg/kg): 1.2 h; Vd ([1]; dose 1 mg/kg): 0.53 L/kg
